Experiments:
Format in all cases: biochemical
[1] = target: EGFR (Homo sapiens, UniProt P00533); test: Kinase panel inhibition, EGFR (one of the methods of Example 76a, 76b, 76c)
Procedure: (§1) Btk kinase activity is determined using a time-resolved fluorescence resonance energy transfer (TR-FRET) methodology. Measurements are performed in a reaction volume of 50 μL using 96-well assay plates. Kinase enzyme, inhibitor, ATP (at the Km for the kinase), and 1 peptide substrate (Biotin-AVLESEEELYSSARQ-NH2) are incubated in a reaction buffer composed of 20 mM Tris, 50 mM NaCl, MgCl2 (5-25 mM depending on the kinase), MnCl2 (0-10 mM), 1 mM DTT, 0.1 mM EDTA, 0.01% bovine serum albumin, 0.005% Tween-20, and 10% DMSO at pH 7.4 for one hour. The reaction is quenched by the addition of 1.2 equivalents of EDTA (relative to divalent cation) in 25 μL of 1× Lance buffer (Perkin-Elmer). Streptavidin-APC (Perkin-Elmer) and Eu-labeled p-Tyr100 antibody (Perkin-Elmer) in 1× Lance buffer are added in a 25 μL volume to give final concentrations of 100 nM and 2.5 nM, respectively, and the mixture is allowed to incubate for one hour. The TR-FRET signal is measured on a multimode plate reader with an excitation wavelength (λEx) of 330 nm and detection wavelengths (λEm) of 615 and 665 nm. Activity is determined by the ratio of the fluorescence at 665 nm to that at 615 nm. For each compound, enzyme activity is measured at various concentrations of compound. Negative control reactions are performed in the absence of inhibitor in replicates of six, and two no-enzyme controls are used to determine baseline fluorescence levels. Inhibition constants, Ki(app), were obtained using the program BatchKi (Kuzmic et al. (2000), Anal. Biochem. 286:45-50). IC50s are obtained according to the equation: IC50=[…]+[E]total/2;
(§2) For all kinases, [ATP]=Km^ATP, [Btk]total=0.5 nM and [Lck]total=6 nM.
(§3) Kinase activity is measured in vitro using electrophoretic mobility shift assay. The kinase reactions are assembled in a total volume of 25 μL in 384 well plates. The reactions comprise: BTK enzyme (1 nM, N-terminal His6-tagged, recombinant, full-length, human BTK purified from baculovirus Sf21 insect cell system), inhibitor, ATP (16 μM, the apparent Km for the kinase), fluorescently labeled peptide substrate (1 μM, FAM-GEEPLYWSFPAKKK-NH2) in a reaction buffer composed of 100 mM HEPES, pH7.5, 5 mM MgCl2 1 mM DTT, 0.1% bovine serum albumin, 0.01% Triton X-100, and 1% DMSO. The reaction is incubated for one hour and is quenched by the addition of 45 μL of termination buffer (100 mM HEPES, pH7.5, 0.01% Triton X-100, 30 mM EDTA). The terminated reactions are analyzed using 12 channel LabChip® 3000 microfluidic detection instrument (Caliper Life Sciences). The enzymatic phosphorylation of the peptide results in a change in net charge, enabling electrophoretic separation of product from substrate peptide. As substrate and product peptides are separated, two peaks of fluorescence are observed. Change in the relative fluorescence intensity of the substrate and product peaks is the parameter measured, reflecting enzyme activity. In the presence of an inhibitor, the ratio between product and substrate is altered:the signal of the product decreases, while the signal of the substrate increases.
(§4) Activity in each sample is determined as the product to sum ratio (PSR):P/(S+P), where P is the peak height of the product peptide and S is the peak height of the substrate peptide. For each compound, enzyme activity is measured at various concentrations (12 concentrations of compound spaced by 3× dilution intervals). Negative control samples (0%-inhibition in the absence of inhibitor) and positive control samples (100%-inhibition, in the presence of 20 mM EDTA) are assembled in replicates of four and are used to calculate %-inhibition values for each inhibitor at each concentration. Percent inhibition (Pinh) is determined using following equation: […]

[2] = target: LCK (Homo sapiens, UniProt P06239); test: Kinase panel inhibition, LCK (one of the methods of Example 76a, 76b, 76c)
Procedure: as §1, §2, §3, §4

[3] = target: T1, BTK (Homo sapiens, UniProt Q06187); test: Btk in vitro inhibitory activity (kinase assay by one of Methods A, B or C)
T1 construct: purified from insect cells as a full-length construct containing a N-terminal 6×-His tag; His6 (N); host or cells: insect cells (baculovirus Sf21)
Procedure: as §1, §2, §3, §4

T1 sequence (Q06187 whole entry): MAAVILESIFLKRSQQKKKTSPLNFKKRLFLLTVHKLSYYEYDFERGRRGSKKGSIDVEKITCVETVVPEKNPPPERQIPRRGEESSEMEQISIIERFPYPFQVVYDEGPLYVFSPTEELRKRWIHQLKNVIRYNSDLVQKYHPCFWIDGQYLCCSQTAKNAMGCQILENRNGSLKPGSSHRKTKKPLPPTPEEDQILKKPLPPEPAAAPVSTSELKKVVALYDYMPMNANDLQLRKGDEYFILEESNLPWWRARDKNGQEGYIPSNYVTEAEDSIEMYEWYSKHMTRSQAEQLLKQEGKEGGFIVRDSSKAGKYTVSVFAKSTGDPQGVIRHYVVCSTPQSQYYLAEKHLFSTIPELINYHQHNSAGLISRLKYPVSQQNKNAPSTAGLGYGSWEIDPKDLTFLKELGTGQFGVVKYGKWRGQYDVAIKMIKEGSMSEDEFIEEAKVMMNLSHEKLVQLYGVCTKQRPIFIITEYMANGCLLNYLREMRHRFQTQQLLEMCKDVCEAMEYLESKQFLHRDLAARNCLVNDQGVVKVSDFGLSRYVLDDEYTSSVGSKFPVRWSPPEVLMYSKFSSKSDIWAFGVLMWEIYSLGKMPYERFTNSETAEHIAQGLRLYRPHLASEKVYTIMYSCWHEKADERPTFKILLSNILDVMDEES
LCK, sequence (P06239 whole entry, species assumed): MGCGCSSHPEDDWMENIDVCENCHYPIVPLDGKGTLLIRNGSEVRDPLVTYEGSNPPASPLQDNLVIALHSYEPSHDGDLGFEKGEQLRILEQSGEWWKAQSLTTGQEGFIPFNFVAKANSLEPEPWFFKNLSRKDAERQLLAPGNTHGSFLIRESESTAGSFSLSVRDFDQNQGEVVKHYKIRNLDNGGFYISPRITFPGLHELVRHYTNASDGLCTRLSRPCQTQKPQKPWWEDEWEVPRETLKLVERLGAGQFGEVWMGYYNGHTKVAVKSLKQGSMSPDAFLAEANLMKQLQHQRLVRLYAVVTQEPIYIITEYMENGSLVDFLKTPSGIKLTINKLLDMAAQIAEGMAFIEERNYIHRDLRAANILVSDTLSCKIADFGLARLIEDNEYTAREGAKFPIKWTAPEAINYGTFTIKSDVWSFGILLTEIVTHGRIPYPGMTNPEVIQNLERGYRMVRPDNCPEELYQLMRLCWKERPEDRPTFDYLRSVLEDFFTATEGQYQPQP
EGFR, sequence (P00533 25-1210, species assumed): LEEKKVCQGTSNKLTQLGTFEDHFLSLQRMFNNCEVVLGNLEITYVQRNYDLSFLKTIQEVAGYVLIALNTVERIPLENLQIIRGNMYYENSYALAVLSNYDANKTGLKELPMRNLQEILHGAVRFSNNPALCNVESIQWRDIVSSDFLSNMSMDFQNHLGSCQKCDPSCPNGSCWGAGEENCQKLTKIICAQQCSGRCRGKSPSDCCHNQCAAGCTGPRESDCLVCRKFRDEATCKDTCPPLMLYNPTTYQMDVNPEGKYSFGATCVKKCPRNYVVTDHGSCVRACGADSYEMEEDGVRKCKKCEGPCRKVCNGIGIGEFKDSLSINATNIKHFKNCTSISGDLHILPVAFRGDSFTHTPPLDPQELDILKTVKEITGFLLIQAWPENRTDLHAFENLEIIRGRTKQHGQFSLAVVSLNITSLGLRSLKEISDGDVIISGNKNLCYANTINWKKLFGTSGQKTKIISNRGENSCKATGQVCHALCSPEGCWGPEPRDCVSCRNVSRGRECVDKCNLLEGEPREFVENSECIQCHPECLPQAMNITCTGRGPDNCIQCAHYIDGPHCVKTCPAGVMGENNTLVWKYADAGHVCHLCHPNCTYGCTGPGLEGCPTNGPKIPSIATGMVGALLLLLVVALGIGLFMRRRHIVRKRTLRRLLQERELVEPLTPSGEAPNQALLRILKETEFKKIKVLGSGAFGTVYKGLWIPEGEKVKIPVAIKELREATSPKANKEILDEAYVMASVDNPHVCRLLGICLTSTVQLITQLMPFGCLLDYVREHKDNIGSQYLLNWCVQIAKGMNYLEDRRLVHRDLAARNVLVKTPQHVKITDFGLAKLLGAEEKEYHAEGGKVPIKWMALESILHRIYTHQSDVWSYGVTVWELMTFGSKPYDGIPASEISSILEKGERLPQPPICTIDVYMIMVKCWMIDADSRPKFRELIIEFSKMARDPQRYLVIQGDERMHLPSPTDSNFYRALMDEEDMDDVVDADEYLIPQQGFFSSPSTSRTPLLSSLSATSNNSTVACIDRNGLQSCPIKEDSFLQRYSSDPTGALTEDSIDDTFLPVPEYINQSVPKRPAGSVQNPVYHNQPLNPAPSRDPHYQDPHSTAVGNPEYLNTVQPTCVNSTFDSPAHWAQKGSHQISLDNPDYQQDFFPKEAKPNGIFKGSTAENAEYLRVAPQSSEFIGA

N#C/C(=C\C1CC1)C(=O)N1CCC[C@@H](n2c(=O)n(-c3ccc(Oc4ccccc4)cc3)c3c(N)ncnc32)C1 [Compound 324, (R,E)-2-(3-(6-amino-8-oxo-7-(4-phenoxyphenyl)-7H-purin-9(8H)-yl)piperidine-1-carbonyl)-3-cyclopropylacrylonitrile]
IC50 [1]: 100 to 1000 nM
IC50 [2]: 100 to 1000 nM
IC50 [3]: < 100 nM

CN(C(=O)/C=C/CNC1CC1)c1cccc(-n2c(=O)n(-c3ccc(Oc4ccccc4)cc3)c3c(N)ncnc32)c1 [Compound 118, (E)-N-(3-(6-amino-8-oxo-7-(4-phenoxyphenyl)-7H-purin-9(8H)-yl)phenyl)-4-(cyclopropylamino)-N-methylbut-2-enamide]
IC50 [1]: 100 to 1000 nM
IC50 [2]: 100 to 1000 nM
IC50 [3]: < 100 nM

CN(C(=O)/C=C/CN(C)[C@H]1CCOC1)c1cccc(-n2c(=O)n(-c3ccc(Oc4ccccc4)cc3)c3c(N)ncnc32)c1 [Compound 123, (S,E)-N-(3-(6-amino-8-oxo-7-(4-phenoxyphenyl)-7H-purin-9(8H)-yl)phenyl)-N-methyl-4-(methyl(tetrahydrofuran-3-yl)amino)but-2-enamide]
IC50 [1]: 1000 to 10000 nM
IC50 [2]: 1000 to 10000 nM
IC50 [3]: < 100 nM

COc1cc(-n2c(=O)n(-c3cccc(N(C)C(=O)/C=C/CN(C)C)c3)c3ncnc(N)c32)ccc1C [Compound 30, (E)-N-(3-(6-amino-7-(3-methoxy-4-methylphenyl)-8-oxo-7H-purin-9(8H)-yl)phenyl)-4-(dimethylamino)-N-methylbut-2-enamide]
IC50 [1]: > 10000 nM
IC50 [2]: > 10000 nM
IC50 [3]: < 100 nM

CN(C(=O)/C=C/CN(C)C1CC1)c1ccc(-n2c(=O)n(-c3ccc(Cl)cc3)c3c(N)ncnc32)cc1 [Compound 49, (E)-N-(4-(6-amino-7-(4-chlorophenyl)-8-oxo-7H-purin-9(8H)-yl)phenyl)-4-(cyclopropyl(methyl)amino)-N-methylbut-2-enamide]
IC50 [1]: > 10000 nM
IC50 [2]: 1000 to 10000 nM
IC50 [3]: 100 to 1000 nM

CN(C(=O)/C=C/CN(C)C1CC1)c1cccc(-n2c(=O)n(-c3ccc(Oc4cccc(F)c4)cc3)c3c(N)ncnc32)c1 [Compound 151, (E)-N-(3-(6-amino-7-(4-(3-fluorophenoxy)phenyl)-8-oxo-7H-purin-9(8H)-yl)phenyl)-4-(cyclopropyl(methyl)amino)-N-methylbut-2-enamide]
IC50 [1]: 1000 to 10000 nM
IC50 [2]: 1000 to 10000 nM
IC50 [3]: < 100 nM

CN(C(=O)/C(C#N)=C/C1CC1)c1cccc(-n2c(=O)n(-c3ccc(Oc4ccccc4)cc3)c3c(N)ncnc32)c1 [Compound 325, (E)-N-(3-(6-amino-8-oxo-7-(4-phenoxyphenyl)-7H-purin-9(8H)-yl)phenyl)-2-cyano-3-cyclopropyl-N-methylacrylamide]
IC50 [1]: 100 to 1000 nM
IC50 [2]: 100 to 1000 nM
IC50 [3]: < 100 nM

CN(C/C=C/C(=O)Nc1cccc(-n2c(=O)n(-c3ccc(Oc4ccccc4)cc3)c3c(N)ncnc32)c1)[C@H]1CCOC1 [Compound 317, (S,E)-N-(3-(6-amino-8-oxo-7-(4-phenoxyphenyl)-7H-purin-9(8H)-yl)phenyl)-4-(methyl(tetrahydrofuran-3-yl)amino)but-2-enamide]
IC50 [1]: 100 to 1000 nM
IC50 [2]: 100 to 1000 nM
IC50 [3]: < 100 nM

CN(C(=O)/C=C/CN(C)C1CCC1)c1ccc(-n2c(=O)n(-c3ccc(Oc4ccccc4)cc3)c3c(N)ncnc32)cc1 [Compound 45, (E)-N-(4-(6-amino-8-oxo-7-(4-phenoxyphenyl)-7H-purin-9(8H)-yl)phenyl)-4-(cyclobutyl(methyl)amino)-N-methylbut-2-enamide]
IC50 [1]: 1000 to 10000 nM
IC50 [2]: 100 to 1000 nM
IC50 [3]: < 100 nM

CN(C/C=C/C(=O)Nc1cccc(-n2c(=O)n(-c3ccc(Oc4cccc(F)c4)cc3)c3c(N)ncnc32)c1)[C@H]1CCOC1 [Compound 316, (S,E)-N-(3-(6-amino-7-(4-(3-fluorophenoxy)phenyl)-8-oxo-7H-purin-9(8H)-yl)phenyl)-4-(methyl(tetrahydrofuran-3-yl)amino)but-2-enamide]
IC50 [1]: 100 to 1000 nM
IC50 [2]: 1000 to 10000 nM
IC50 [3]: < 100 nM

CN(C/C=C/C(=O)N1CC[C@@H](n2c(=O)n(-c3ccc(Oc4ccccc4)cc3)c3c(N)ncnc32)C1)C1CC1 [Compound 63, (R,E)-6-amino-9-(1-(4-(cyclopropyl(methyl)amino)but-2-enoyl)pyrrolidin-3-yl)-7-(4-phenoxyphenyl)-7H-purin-8(9H)-one]
IC50 [1]: 1000 to 10000 nM
IC50 [2]: 100 to 1000 nM
IC50 [3]: < 100 nM

CN(C(=O)/C=C/c1ccccn1)c1cccc(-n2c(=O)n(-c3ccc(Oc4ccccc4)cc3)c3c(N)ncnc32)c1 [Compound 247, (E)-N-(3-(6-amino-8-oxo-7-(4-phenoxyphenyl)-7H-purin-9(8H)-yl)phenyl)-N-methyl-3-(pyridin-2-yl)acrylamide]
IC50 [1]: 1000 to 10000 nM
IC50 [2]: 1000 to 10000 nM
IC50 [3]: 100 to 1000 nM

Cc1cc(NC(=O)/C=C/CN(C)C2CC2)cc(-n2c(=O)n(-c3ccc(Oc4ccccc4)cc3)c3c(N)ncnc32)c1 [Compound 255, (E)-N-(3-(6-amino-8-oxo-7-(4-phenoxyphenyl)-7H-purin-9(8H)-yl)-5-methylphenyl)-4-(cyclopropyl(methyl)amino)but-2-enamide]
IC50 [1]: 100 to 1000 nM
IC50 [2]: 100 to 1000 nM
IC50 [3]: < 100 nM

CN(C(=O)/C=C/CN(C)C1CCC1)c1ccc(-n2c(=O)n(-c3ccc(Cl)cc3)c3c(N)ncnc32)cc1 [Compound 50, (E)-N-(4-(6-amino-7-(4-chlorophenyl)-8-oxo-7H-purin-9(8H)-yl)phenyl)-4-(cyclobutyl(methyl)amino)-N-methylbut-2-enamide]
IC50 [1]: > 10000 nM
IC50 [2]: 1000 to 10000 nM
IC50 [3]: 100 to 1000 nM

Cc1ccc(-n2c(=O)n(-c3ccc(Oc4ccccc4)cc3)c3c(N)ncnc32)cc1N(C)C(=O)/C=C/CN(C)C1CC1 [Compound 201, (E)-N-(5-(6-amino-8-oxo-7-(4-phenoxyphenyl)-7H-purin-9(8H)-yl)-2-methylphenyl)-4-(cyclopropyl(methyl)amino)-N-methylbut-2-enamide]
IC50 [1]: 1000 to 10000 nM
IC50 [2]: 1000 to 10000 nM
IC50 [3]: < 100 nM

COc1ccc(-n2c(=O)n(-c3ccc(Oc4ccccc4)cc3)c3c(N)ncnc32)cc1N(C)C(=O)/C=C/CN(C)[C@H]1CCOC1 [Compound 313, (S,E)-N-(5-(6-amino-8-oxo-7-(4-phenoxyphenyl)-7H-purin-9(8H)-yl)-2-methoxyphenyl)-N-methyl-4-(methyl(tetrahydrofuran-3-yl)amino)but-2-enamide]
IC50 [1]: 1000 to 10000 nM
IC50 [2]: 1000 to 10000 nM
IC50 [3]: < 100 nM

Cc1cc(Oc2ccccc2)ccc1-n1c(=O)n(-c2cccc(N(C)C(=O)/C=C/CN(C)C3CC3)c2)c2ncnc(N)c21 [Compound 290, (E)-N-(3-(6-amino-7-(2-methyl-4-phenoxyphenyl)-8-oxo-7H-purin-9(8H)-yl)phenyl)-4-(cyclopropyl(methyl)amino)-N-methylbut-2-enamide]
IC50 [1]: 1000 to 10000 nM
IC50 [2]: 1000 to 10000 nM
IC50 [3]: < 100 nM

COCCOc1ccc(-n2c(=O)n(-c3ccc(C)c(OC)c3)c3c(N)ncnc32)cc1NC(=O)/C=C/CN(C)C [Compound 112, (E)-N-(5-(6-amino-7-(3-methoxy-4-methylphenyl)-8-oxo-7H-purin-9(8H)-yl)-2-(2-methoxyethoxy)phenyl)-4-(dimethylamino)but-2-enamide]
IC50 [1]: 1000 to 10000 nM
IC50 [2]: 1000 to 10000 nM
IC50 [3]: < 100 nM
